Experiments:
[1] = biological target: Histone deacetylase 1 (Homo sapiens, UniProt Q13547); experiment: Inhibition of HDAC1 (unknown origin)
[2] = biological target: Histone deacetylase 2 (Homo sapiens, UniProt Q92769); experiment: Inhibition of HDAC2 (unknown origin)
[3] = biological target: Histone deacetylase 3 (Homo sapiens, UniProt O15379); experiment: Inhibition of HDAC3 (unknown origin)
[4] = biological target: Histone deacetylase 4 (Homo sapiens, UniProt P56524); experiment: Inhibition of HDAC4 (unknown origin)
[5] = biological target: T1, Protein deacetylase HDAC6 (Homo sapiens, UniProt Q9UBN7); experiment: Inhibition of HDAC6 (unknown origin)
T1 sequence (Q9UBN7 whole entry): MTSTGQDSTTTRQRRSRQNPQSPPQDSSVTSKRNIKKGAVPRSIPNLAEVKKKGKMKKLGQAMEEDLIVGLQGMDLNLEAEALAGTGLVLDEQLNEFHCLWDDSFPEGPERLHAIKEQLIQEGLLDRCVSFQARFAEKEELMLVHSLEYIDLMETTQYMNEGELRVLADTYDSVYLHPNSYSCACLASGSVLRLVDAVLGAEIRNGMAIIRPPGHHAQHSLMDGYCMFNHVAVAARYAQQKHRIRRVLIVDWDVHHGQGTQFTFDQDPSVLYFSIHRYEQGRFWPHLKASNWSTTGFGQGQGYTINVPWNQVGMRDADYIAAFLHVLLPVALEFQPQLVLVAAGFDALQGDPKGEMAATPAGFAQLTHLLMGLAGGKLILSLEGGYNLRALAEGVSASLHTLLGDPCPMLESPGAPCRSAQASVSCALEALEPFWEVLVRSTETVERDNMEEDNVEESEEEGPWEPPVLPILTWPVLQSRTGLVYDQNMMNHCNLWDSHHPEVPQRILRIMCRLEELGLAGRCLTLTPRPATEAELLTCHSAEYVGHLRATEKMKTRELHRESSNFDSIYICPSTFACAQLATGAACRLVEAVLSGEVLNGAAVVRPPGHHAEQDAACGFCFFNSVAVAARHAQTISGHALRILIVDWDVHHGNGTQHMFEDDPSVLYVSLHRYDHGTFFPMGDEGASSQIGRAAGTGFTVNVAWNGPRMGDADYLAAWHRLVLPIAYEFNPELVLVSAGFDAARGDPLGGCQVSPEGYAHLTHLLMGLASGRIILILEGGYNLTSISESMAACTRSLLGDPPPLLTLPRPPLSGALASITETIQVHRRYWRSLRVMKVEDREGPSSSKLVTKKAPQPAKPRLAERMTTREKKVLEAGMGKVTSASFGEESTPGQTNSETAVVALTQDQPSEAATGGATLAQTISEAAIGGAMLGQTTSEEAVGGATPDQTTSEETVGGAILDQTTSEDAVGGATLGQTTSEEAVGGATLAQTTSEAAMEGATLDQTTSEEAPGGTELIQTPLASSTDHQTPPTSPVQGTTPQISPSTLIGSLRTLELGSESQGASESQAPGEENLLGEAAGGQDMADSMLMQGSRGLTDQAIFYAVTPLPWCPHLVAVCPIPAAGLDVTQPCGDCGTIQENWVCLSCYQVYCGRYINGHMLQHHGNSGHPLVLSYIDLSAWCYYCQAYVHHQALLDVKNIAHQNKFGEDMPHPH

[6] = biological target: T2, Histone deacetylase 8 (Homo sapiens, UniProt Q9BY41); experiment: Inhibition of HDAC8 (unknown origin)
T2 sequence (Q9BY41 whole entry): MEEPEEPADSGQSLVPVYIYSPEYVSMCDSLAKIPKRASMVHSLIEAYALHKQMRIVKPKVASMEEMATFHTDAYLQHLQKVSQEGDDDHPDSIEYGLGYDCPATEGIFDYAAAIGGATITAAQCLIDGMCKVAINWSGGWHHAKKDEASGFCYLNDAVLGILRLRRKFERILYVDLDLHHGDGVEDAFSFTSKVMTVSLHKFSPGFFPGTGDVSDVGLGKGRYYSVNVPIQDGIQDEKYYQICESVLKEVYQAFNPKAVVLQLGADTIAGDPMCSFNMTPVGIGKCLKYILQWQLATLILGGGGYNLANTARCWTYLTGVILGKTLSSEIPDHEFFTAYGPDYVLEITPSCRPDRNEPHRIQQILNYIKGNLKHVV

Histone deacetylase 4, sequence (P56524 whole entry): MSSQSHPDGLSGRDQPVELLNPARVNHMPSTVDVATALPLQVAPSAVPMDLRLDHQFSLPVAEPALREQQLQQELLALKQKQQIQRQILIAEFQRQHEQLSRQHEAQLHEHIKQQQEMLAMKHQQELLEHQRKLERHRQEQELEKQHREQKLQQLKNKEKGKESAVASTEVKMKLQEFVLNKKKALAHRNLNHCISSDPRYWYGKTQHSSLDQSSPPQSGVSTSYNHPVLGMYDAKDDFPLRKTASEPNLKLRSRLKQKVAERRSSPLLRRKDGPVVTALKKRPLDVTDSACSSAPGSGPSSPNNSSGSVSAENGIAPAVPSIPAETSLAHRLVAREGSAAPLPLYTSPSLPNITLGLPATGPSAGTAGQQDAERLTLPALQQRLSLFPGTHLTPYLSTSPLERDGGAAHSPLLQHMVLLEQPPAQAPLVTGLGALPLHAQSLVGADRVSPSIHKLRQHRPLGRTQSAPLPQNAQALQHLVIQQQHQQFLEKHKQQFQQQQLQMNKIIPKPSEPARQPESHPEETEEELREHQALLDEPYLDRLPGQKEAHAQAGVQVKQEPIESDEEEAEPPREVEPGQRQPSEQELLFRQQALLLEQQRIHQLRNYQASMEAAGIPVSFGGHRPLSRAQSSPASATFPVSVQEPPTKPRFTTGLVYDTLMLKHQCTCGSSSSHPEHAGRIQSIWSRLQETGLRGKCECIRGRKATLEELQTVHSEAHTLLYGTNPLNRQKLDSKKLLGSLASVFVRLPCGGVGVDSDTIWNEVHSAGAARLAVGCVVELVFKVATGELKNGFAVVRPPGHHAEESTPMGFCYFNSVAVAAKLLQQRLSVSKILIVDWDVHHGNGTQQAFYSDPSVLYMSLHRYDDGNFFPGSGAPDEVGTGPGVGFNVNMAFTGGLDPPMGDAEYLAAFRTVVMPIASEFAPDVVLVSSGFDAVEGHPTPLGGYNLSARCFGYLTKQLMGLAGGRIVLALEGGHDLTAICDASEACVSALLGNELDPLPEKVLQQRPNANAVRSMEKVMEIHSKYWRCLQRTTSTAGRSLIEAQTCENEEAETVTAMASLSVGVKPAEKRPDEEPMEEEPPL
Histone deacetylase 2, sequence (Q92769 whole entry): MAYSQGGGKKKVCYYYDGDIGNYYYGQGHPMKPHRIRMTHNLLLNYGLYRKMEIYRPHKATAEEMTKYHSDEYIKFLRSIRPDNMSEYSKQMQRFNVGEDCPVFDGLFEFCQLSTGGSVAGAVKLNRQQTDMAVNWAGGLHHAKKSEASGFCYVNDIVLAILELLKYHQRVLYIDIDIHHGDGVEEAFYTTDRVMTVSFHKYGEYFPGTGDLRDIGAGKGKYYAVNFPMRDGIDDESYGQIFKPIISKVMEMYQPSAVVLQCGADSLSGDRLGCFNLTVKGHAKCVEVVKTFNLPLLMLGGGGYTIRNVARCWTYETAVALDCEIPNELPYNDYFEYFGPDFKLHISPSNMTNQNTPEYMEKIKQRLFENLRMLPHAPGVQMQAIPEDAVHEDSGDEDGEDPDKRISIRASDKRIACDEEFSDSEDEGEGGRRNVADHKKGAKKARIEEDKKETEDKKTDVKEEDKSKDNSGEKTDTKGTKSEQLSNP
Histone deacetylase 1, sequence (Q13547 whole entry): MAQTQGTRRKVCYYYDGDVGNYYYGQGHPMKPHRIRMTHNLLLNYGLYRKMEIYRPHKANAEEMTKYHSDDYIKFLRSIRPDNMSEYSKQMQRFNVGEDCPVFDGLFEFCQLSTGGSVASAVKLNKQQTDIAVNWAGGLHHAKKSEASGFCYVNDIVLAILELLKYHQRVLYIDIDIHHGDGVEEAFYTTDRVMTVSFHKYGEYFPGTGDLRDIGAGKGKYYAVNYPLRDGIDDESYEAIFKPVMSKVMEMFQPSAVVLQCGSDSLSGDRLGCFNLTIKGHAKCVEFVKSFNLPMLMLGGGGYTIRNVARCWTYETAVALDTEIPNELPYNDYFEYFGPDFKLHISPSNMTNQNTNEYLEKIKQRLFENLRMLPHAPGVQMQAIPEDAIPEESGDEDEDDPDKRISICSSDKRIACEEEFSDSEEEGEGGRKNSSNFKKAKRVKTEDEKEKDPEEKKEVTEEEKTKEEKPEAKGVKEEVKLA
Histone deacetylase 3, sequence (O15379 whole entry): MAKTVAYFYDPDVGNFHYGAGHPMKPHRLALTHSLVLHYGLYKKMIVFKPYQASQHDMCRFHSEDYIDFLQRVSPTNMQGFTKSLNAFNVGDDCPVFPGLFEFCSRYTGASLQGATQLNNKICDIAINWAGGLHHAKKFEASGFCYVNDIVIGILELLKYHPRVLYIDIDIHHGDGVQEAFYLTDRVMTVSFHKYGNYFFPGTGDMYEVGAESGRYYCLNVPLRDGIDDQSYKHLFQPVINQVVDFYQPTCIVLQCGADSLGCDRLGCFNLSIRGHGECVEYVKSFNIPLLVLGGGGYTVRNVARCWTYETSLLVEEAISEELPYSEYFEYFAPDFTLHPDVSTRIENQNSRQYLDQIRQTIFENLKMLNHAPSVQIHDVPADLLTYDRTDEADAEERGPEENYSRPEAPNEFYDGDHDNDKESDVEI

## CC(=O)SCCCCCCNC(=O)c1cc(-c2ccc(F)cc2)nn1C
[1]
  IC50: 21 nM
[2]
  IC50: 140 nM
[3]
  IC50: 68 nM
[4]
  IC50: 10000 nM
[5]
  IC50: 10000 nM
[6]
  IC50: 4200 nM

Source: ChEMBL document CHEMBL3758139, “Novel thiol-based histone deacetylase inhibitors bearing 3-phenyl-1H-pyrazole-5-carboxamide scaffold as surface recognition motif: Design, synthesis and SAR study” (Bioorg Med Chem Lett, 2016)
